Assays:
[1] = biological target: U937 Phosphodiesterase IV (PDE IV); assay: Inhibition of U937 Phosphodiesterase IV (PDE IV); format: biochemical; details: inhibitory activity on PDE-IV; enzyme preparation from U937 cells, [3H]cAMP SPA assay, CI-930 10 μM present
Experimental: (a) Inhibition of U937 Phosphodiesterase IV (PDE IV)
Cultured U937 cells were washed twice and harvested with phosphate-buffered saline (PBS) by cell-scraper. After centrifugation, the cell pellet was suspended in homogenizing buffer (0.5% deoxycholate [DOC], 5 mM 2-mercaptoethanol, 1 μM leupeptin, 100 μM PMSF, 20 μM p-tosyl-L-lysine-chloromethyl ketone [TLCK] in PBS). The cell suspension was then sonicated for a couple of minutes and homogenized by a glass-Teflon homogenizer with twenty strokes. The homogenate was centrifuged at 200 g for 30 minutes, and the supernatant was further ultra-centrifuged at 100,000×g for 90 minutes (4° C.). The final supernatant was dialyzed against dialysis buffer, which was the same component as homogenizing buffer without DOC. The dialysate of enzyme preparation was stored at −20° C. until assay.
PDE4, activity was estimated with a Phosphodiesterase [^3H]cAMP SPA Enzyme Assay System (Amersham Pharmacia Biotech), using a 96 well Opti-plate. Reactions were initiated by addition of 0.025 μCi/well of [^3H]cAMP to the enzyme mixture containing 50 mM Tris-HCl (pH 7.5), 8.3 mM MgCl2, 1.7 mM EGTA, and various concentrations of the test compound or vehicle. CI-930 (10 μM in final), a specific PDE3, inhibitor, was also added in the reaction mixture. After incubation at 30° C. for 15 minutes, 50 μL of SPA beads suspension was added to each well. The well-plate was then shaken for 20 minutes by a plate mixer. Radio-activity in each well was counted by a Top Counter.
Test compounds were dissolved in 100% dimethylsulfoxide (DMSO) and diluted into respective concentrations with the final solution containing 1% v/v of DMSO.
IC50 values of test compounds for the enzyme activity of PDE4 was determined from regression analysis for log-logit conversion values of percent inhibition in the compound-treated tubes compared to that of the control. Percent inhibition was calculated with the following equation: Inhibition (%)={1−(C−B)/(A−B)}×100; in which A, B and C means mean values of radio-activity counts (dpm) of control, blank and the compound-treated tubes, respectively.

[2] = test system: TNF-alpha production in rat peripheral blood mononuclear cells (PBMC); assay: Inhibition on TNF-alpha production in rat mononuclear cells; format: cell-based; details: inhibitory activity on TNF-alpha production, LPS 1 μg/mL, 24 hours, ELISA
Experimental: (b) Inhibition on TNF-alpha Production in Rat Mononuclear Cells 1. Test Method (1) Rat Peripheral Blood Mononuclear Cells (PBMC) Preparation
Male Wistar rat at the age of 15 weeks was anesthetized with ether and the blood (about 15 ml) was collected with a disposable syringe from the abdominal artery under celiotomy. Collected blood was transferred to a heparin containing polyethylene tube and an equal volume of RPMI1640 was added to each tube. Diluted blood was then piled tip to 20 ml of Lympholyte-Rat (Cedarlane Laboratories, Canada) in polystyrene centrifuge tube. After centrifugation at 3,000 rpm for 30 minutes, cells gathering in the center area of the gradient were collected by capillary and washed with 40 mL of RPMI1640 by twice of centrifugation at 1,200 rpm for 10 minutes. Precipitate was then suspended in 10 ml of Tris-ammonium-chloride buffer and stood for 10 minutes in order to lyse remaining erythrocytes. After centrifugation at 1,200 rpm for 10 minutes, the precipitate was washed twice with 50 ml of RPMI1640 by centrifugation. PBMC finally precipitated were suspended in RPMI1640 containing 1% fetal bovine serum and antibiotics. After cell counting, final suspension at 3×10^6 cells/mL in culture medium was prepared.
(2) TNF-alpha Production from Stimulated PBMCs
Rat PBMC prepared by the density gradient method using Lympholyte-Rat, were suspended in the culture medium mentioned above with the concentration of 3×10^6 cells/mL and 0.5 ml of the suspension was sowed into each well of a 24-well culture plate. Cells were incubated in the CO2 incubator for 24 hours with 0.25 ml of LPS in addition of 0.25 ml of concentrations of drugs or vehicle at the start of the incubation. Final concentration of LPS in the incubation medium was 1 μg/mL. After 24 hours, the supernatant of each well by centrifugation at 1,700 rpm for 10 minutes was stored at −80° C. until assay. TNF-alpha levels in the medium were measured by ELISA.
The IC50 values of drugs on cytokine productions in LPS stimulated PBMC were estimated by the regression analysis for the relative values of cytokine level in the drug-treated wells compared to those of the vehicle-treated ones.

Row | SMILES | IC50 [1] [nM] | melting point [°C] | IC50 [2] [nM]
1 | CCn1ncc2c(-c3cncc(Br)c3)c(C#N)c(C)nc21 [Example 73, 4-(5-bromo-3-pyridyl)-1-ethyl-6-methyl-1H-pyrazolo[3,4-b]pyridine-5-carbonitrile] | < 1000 | 165 to 166 | 27
2 | CCn1ncc2c(-c3cncc(Br)c3)c(/C=C/C(=O)O)c(C)nc21 [Example 84, (2E)-3-[4-(5-Bromo-3-pyridyl)-1-ethyl-6-methyl-1H-pyrazolo[3,4-b]pyridin-5-yl]acrylic acid] | < 1000 | 189 to 190 | 62.7
3 | CCn1ncc2c(-c3cncc(C)c3)c(/C=C/C(=O)O)c(COCC3CCCCC3)nc21 [Example 89, (2E)-3-[6-[(Cyclohexylmethoxy)methyl]-1-ethyl-4-(5-methyl-3-pyridyl)-1H-pyrazolo[3,4-b]pyridin-5-yl]acrylic acid] | < 1000 | 172 to 173 | 85.6
4 | CCn1ncc2c(-c3cncc(C)c3)c(/C=C/C(=O)O)c(-c3ccccc3)nc21 [Example 91, (2E)-3-[1-Ethyl-4-(5-methyl-3-pyridyl)-6-phenyl-1H-pyrazolo[3,4-b]pyridin-5-yl]acrylic acid] | < 1000 | – | 15.7
5 | CCn1ncc2c(-c3cncc(Cl)c3)c(/C=C/C(=O)O)c(COC)nc21 [Example 231, (2E)-3-[4-(5-chloro-3-pyridyl)-1-ethyl-6-(methoxymethyl)-1H-pyrazolo[3,4-b]pyridin-5-yl]acrylic acid] | – | 187 to 188 | –
6 | CCOCc1nc2c(cnn2CC)c(-c2cncc(C)c2)c1/C=C/C(=O)O [Example 234, (2E)-3-[6-(Ethoxymethyl)-1-ethyl-4-(5-methyl-3-pyridyl)-1H-pyrazolo[3,4-b]pyridin-5-yl]acrylic acid] | – | 187 to 188 | –
7 | CCn1ncc2c(-c3cncc(C)c3)c(/C=C/C(=O)O)c(COC(C)C)nc21 [Example 240, (2E)-3-[1-Ethyl-6-(isopropoxymethyl)-4-(5-methyl-3-pyridyl)-1H-pyrazolo[3,4-b]pyridin-5-yl]acrylic acid] | – | 198 to 199 | –
8 | CCn1ncc2c(-c3ccnc(C)c3)c(/C=C/C(=O)O)c(C(C)C)nc21 [Example 242, (2E)-3-[1-Ethyl-6-isopropyl-4-(2-methyl-4-pyridyl)-1H-pyrazolo[3,4-b]pyridin-5-yl]acrylic acid] | – | 260 to 262.5 | –
9 | CCC(CC)NC(=O)c1c(-c2ccccc2)nc2c(cnn2CC)c1-c1cncc(C)c1 [Example 245, 1-Ethyl-N-(1-ethylpropyl)-4-(5-methyl-3-pyridyl)-6-phenyl-1H-pyrazolo[3,4-b]pyridine-5-carboxamide] | – | 170 to 172 | –
10 | CCn1ncc2c(-c3cncc(C)c3)c(C(=O)NCCOc3ccccc3)c(-c3ccccc3)nc21 [Example 246, 1-Ethyl-4-(5-methyl-3-pyridyl)-N-(2-phenoxyethyl)-6-phenyl-1H-pyrazolo[3,4-b]pyridine-5-carboxamide] | – | 175 to 176 | –
11 | CCn1ncc2c(-c3cncc(C)c3)c(C(=O)NCC3CCCCC3)c(-c3ccccc3)nc21 [Example 247, N-(Cyclohexylmethyl)-1-ethyl-4-(5-methyl-3-pyridyl)-6-phenyl-1H-pyrazolo[3,4-b]pyridine-5-carboxamide] | – | 197 to 199 | –
12 | CCn1ncc2c(-c3ccnc(C)c3)c(CCC(=O)O)c(C(C)C)nc21 [Example 351, 3-[1-Ethyl-6-isopropyl-4-(2-methyl-4-pyridyl)-1H-pyrazolo[3,4-b]pyridin-5-yl]propanoic acid] | – | 187 to 189 | –

More lines, main results first:

Row | IC50 [1] [nM] | melting point [°C] | SMILES | IC50 [2] [nM]
13 | – | 216 to 217.5 | CCn1ncc2c(-c3cncc(C)c3)c(/C=C/C(=O)O)c(CC(C)(C)C)nc21 [Example 236, (2E)-3-[6-(2,2-Dimethylpropyl)-1-ethyl-4-(5-methyl-3-pyridyl)-1H-pyrazolo[3,4-b]pyridin-5-yl]acrylic acid] | –
14 | – | 184 to 185 | CCn1ncc2c(-c3cncc(C)c3)c(CCC(=O)O)c(CC3CC3)nc21 [Example 241, 3-[6-(Cyclopropylmethyl)-1-ethyl-4-(5-methyl-3-pyridyl)-1H-pyrazolo[3,4-b]pyridin-5-yl]propanoic acid] | –
15 | – | 205 to 207 | CCn1ncc2c(-c3cncc(C)c3)c(CCC(=O)O)c(C3CC3)nc21 [Example 343, 3-[6-Cyclopropyl-1-ethyl-4-(5-methyl-3-pyridyl)-1H-pyrazolo[3,4-b]pyridin-5-yl]propanoic acid] | –
16 | – | 190 to 191 | CCn1ncc2c(-c3cncc(C)c3)c(CCC(=O)O)c(CC(C)C)nc21 [Example 344, 3-[1-Ethyl-6-isobutyl-4-(5-methyl-3-pyridyl)-1H-pyrazolo[3,4-b]pyridin-5-yl]propanoic acid] | –
17 | – | 144 to 145 | CCC(CC)c1nc2c(cnn2CC)c(-c2cncc(C)c2)c1CCC(=O)O [Example 346, 3-[1-Ethyl-6-(1-ethylpropyl)-4-(5-methyl-3-pyridyl)-1H-pyrazolo[3,4-b]pyridin-5-yl]propanoic acid] | –
18 | – | 221 to 223 | CCn1ncc2c(-c3cncc(C)c3)c(CCC(=O)O)c(CC(C)(C)C)nc21 [Example 349, 3-[6-(2,2-Dimethylpropyl)-1-ethyl-4-(5-methyl-3-pyridyl)-1H-pyrazolo[3,4-b]pyridin-5-yl]propanoic acid] | –

From US7459451B2, “Pyrazolopyridine derivatives” (Astellas Pharma Inc., priority 2004, dated 2008)
